Experiment: Saturation concentration (solubility) of ketamine in silicone pressure sensitive adhesive

CNC1(c2ccccc2Cl)CCCCC1=O (racemic) [ketamine, (RS)-(±)-2-(2-chlorophenyl)-2-(methylamino)cyclohexan-1-one]
Solubility of ketamine in the silicone pressure sensitive adhesive: not more than 1 wt.-%

Source: patent publication US20230285323A1, “ESKETAMINE-SUSPENSION-TTS” (LTS LOHMANN THERAPIE-SYSTEME AG, priority 2020, published 2023)
